For this test, the target named is rat TRPV1 (Rattus norvegicus (Rat), UniProt O35433). To be noted: read-out: Rat IC50.

Molecules are shown by their SMILES. Counter-ions that a name gives are not always drawn. Like-named read-outs stand apart in the source and are kept apart here.

Here are results for 27 molecules from patent publication US9422293B2 (priority 2006, dated 2016).

Sequence of rat TRPV1 (O35433 whole entry): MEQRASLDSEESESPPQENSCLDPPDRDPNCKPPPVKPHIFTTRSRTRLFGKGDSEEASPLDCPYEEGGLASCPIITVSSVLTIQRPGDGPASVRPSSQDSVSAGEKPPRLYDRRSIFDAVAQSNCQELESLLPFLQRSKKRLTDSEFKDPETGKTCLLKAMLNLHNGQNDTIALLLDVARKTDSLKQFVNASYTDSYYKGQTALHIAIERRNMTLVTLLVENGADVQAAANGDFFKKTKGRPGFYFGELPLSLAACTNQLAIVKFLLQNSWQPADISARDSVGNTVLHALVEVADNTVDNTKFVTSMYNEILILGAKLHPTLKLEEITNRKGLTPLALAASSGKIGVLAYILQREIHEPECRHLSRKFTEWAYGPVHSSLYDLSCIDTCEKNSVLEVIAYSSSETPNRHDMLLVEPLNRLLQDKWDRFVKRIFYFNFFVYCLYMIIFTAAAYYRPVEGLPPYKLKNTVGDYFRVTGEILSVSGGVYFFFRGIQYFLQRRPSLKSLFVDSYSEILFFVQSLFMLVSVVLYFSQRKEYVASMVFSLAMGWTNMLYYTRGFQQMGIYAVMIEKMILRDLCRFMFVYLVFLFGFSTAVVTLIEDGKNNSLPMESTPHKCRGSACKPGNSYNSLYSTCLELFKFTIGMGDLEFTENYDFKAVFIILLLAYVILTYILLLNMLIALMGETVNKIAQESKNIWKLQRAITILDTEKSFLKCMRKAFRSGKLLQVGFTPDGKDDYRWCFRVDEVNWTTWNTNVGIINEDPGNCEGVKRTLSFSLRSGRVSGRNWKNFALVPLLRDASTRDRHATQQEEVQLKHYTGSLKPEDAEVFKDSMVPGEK

For the molecule `CC(C)c1nc2c(c(Nc3ccc(C(F)(F)F)cc3)n1)CCN(c1ncccc1[N+](=O)[O-])CC2` [Example 88, [2-Isopropyl-7-(3-nitro-pyridin-2-yl)-6,7,8,9-tetrahydro-5H-pyrimido[4,5-d]azepin-4-yl]-(4-trifluoromethyl-phenyl)-amine], the IC50 (commonly the concentration needed to halve the response being measured) was found to be 960 nM.

For `CC(C)c1nc2c(c(Nc3ccc(C(F)(F)F)cn3)n1)CCN(c1ncccc1C(F)(F)F)CC2` [Example 20A, [2-Isopropyl-7-(3-trifluoromethyl-pyridin-2-yl)-6,7,8,9-tetrahydro-5H-pyrimido[4,5-d]azepin-4-yl]-(5-trifluoromethyl-pyridin-2-yl)-amine hydrochloride salt], the IC50 (hydrochloride salt) turned out to be 250 nM.

As for `FC(F)(F)c1ccc(Nc2nc(N3C4CCC3CC4)nc3c2CCN(c2ncccc2C(F)(F)F)CC3)cc1` [Example 268, 2-(7-Azabicyclo[2.2.1]hept-7-yl)-N-[4-(trifluoromethyl)phenyl]-7-[3-(trifluoromethyl)pyridin-2-yl]-6,7,8,9-tetrahydro-5H-pyrimido[4,5-d]azepin-4-amine], the IC50 worked out at 150 nM.

As for `FC(F)(F)c1ccc(Nc2nc(NCC3CC3)nc3c2CCN(c2ncccc2C(F)(F)F)CC3)cc1` [Example 95B, N^2-Cyclopropylmethyl-N^4-(4-trifluoromethyl-phenyl)-7-(3-trifluoromethyl-pyridin-2-yl)-6,7,8,9-tetrahydro-5H-pyrimido[4,5-d]azepine-2,4-diamine trifluoroacetic acid salt], the IC50 came out at 82 nM.

Consider `CC(C)c1nc2c(c(NCc3ccc(Cl)c(C(F)(F)F)c3)n1)CCN(c1ncccc1C(F)(F)F)CC2` [Example 115, N-{[4-Chloro-3-(trifluoromethyl)phenyl]methyl}-2-(1-methylethyl)-7-[3-(trifluoromethyl)pyridin-2-yl]-6,7,8,9-tetrahydro-5H-pyrimido[4,5-d]azepin-4-amine], for which the IC50 worked out at 3790 nM.

For `CC(=O)c1ccc(Nc2nc(N3CCOCC3)nc3c2CCN(c2ncccc2C(F)(F)F)CC3)cc1` [Example 380, 1-[4-({2-Morpholin-4-yl-7-[3-(trifluoromethyl)pyridin-2-yl]-6,7,8,9-tetrahydro-5H-pyrimido[4,5-d]azepin-4-yl}amino)phenyl]ethanone], the IC50 stood at 230 nM.

Take `CC(C)c1nc2c(c(Nc3ccc(C(C)(C)C)cc3)n1)CCN(c1ncc([N+](=O)[O-])cc1C(F)(F)F)CC2` [Example 290, N-[4-(1,1-Dimethylethyl)phenyl]-2-(1-methylethyl)-7-[5-nitro-3-(trifluoromethyl)pyridin-2-yl]-6,7,8,9-tetrahydro-5H-pyrimido[4,5-d]azepin-4-amine]: the IC50 amounted to 100 nM.

As for `Fc1cc(C(F)(F)F)ccc1Nc1nc(N2CCCCC2)nc2c1CCN(c1ncccc1C(F)(F)F)CC2` [Example 166], the IC50 turned out to be 380 nM.

Regarding `CC(C)N1CCC(Oc2nc3c(c(Nc4ccc(C(F)(F)F)cc4)n2)CCN(c2ncccc2C(F)(F)F)CC3)C1` (stereo not drawn) [Example 315, 2-{[1-(1-Methylethyl)pyrrolidin-3-yl]oxy}-N-[4-(trifluoromethyl)phenyl]-7-[3-(trifluoromethyl)pyridin-2-yl]-6,7,8,9-tetrahydro-5H-pyrimido[4,5-d]azepin-4-amine], the IC50 is 5520 nM.

Turning to `O[C@@H]1CCCN(c2nc3c(c(Nc4ccc(C(F)(F)F)cc4)n2)CCN(c2ncccc2C(F)(F)F)CC3)C1` [Example 91B, (R)-1-[4-(4-Trifluoromethyl-phenylamino)-7-(3-trifluoromethyl-pyridin-2-yl)-6,7,8,9-tetrahydro-5H-pyrimido[4,5-d]azepin-2-yl]-piperidin-3-ol trifluoroacetic acid salt], the IC50 amounted to 240 nM.

Regarding `CS(=O)(=O)c1cccnc1N1CCc2ncnc(Nc3ccc(C(F)(F)F)cc3)c2CC1` [Example 283, 7-[3-(Methylsulfonyl)pyridin-2-yl]-N-[4-(trifluoromethyl)phenyl]-6,7,8,9-tetrahydro-5H-pyrimido[4,5-d]azepin-4-amine], the concentration for half-maximal inhibition (IC50) was determined as 8520 nM.

For the molecule `FC(F)(F)c1ccc(Nc2nc(OC3CCOC3)nc3c2CCN(c2ncccc2C(F)(F)F)CC3)cc1` (stereo not drawn) [Example 340, 2-(Tetrahydrofuran-3-yloxy)-N-[4-(trifluoromethyl)phenyl]-7-[3-(trifluoromethyl)pyridin-2-yl]-6,7,8,9-tetrahydro-5H-pyrimido[4,5-d]azepin-4-amine], the IC50 is 260 nM.

In the case of `CC(C)c1nc2c(c(Nc3ccc(C(F)(F)F)c(Cl)n3)n1)CCN(c1ncccc1C(F)(F)F)CC2` [Example 188, N-[6-Chloro-5-(trifluoromethyl)pyridin-2-yl]-2-(1-methylethyl)-7-[3-(trifluoromethyl)pyridin-2-yl]-6,7,8,9-tetrahydro-5H-pyrimido[4,5-d]azepin-4-amine hydrochloride salt], the IC50 is 1590 nM.

Regarding `CSc1ccc(Nc2nc(N3CCCCC3)nc3c2CCN(c2ncccc2C(F)(F)F)CC3)cc1` [Example 160, N-[4-(Methylsulfanyl)phenyl]-2-piperidin-1-yl-7-[3-(trifluoromethyl)pyridin-2-yl]-6,7,8,9-tetrahydro-5H-pyrimido[4,5-d]azepin-4-amine], the IC50 came to 100 nM.

With `COC(=O)C(C)(C)c1ccc(Nc2nc(N3CCCCC3)nc3c2CCN(c2ncccc2C(F)(F)F)CC3)cc1` [Example 175, Methyl 2-methyl-2-[4-({2-piperidin-1-yl-7-[3-(trifluoromethyl)pyridin-2-yl]-6,7,8,9-tetrahydro-5H-pyrimido[4,5-d]azepin-4-yl}amino)phenyl]propanoate], the IC50 amounted to 80 nM.

As to `FC(F)(F)c1ccc(Nc2nc(N3CCCC3)nc3c2CCN(c2ncccc2C(F)(F)F)CC3)cc1` [Example 106, [2-Pyrrolidin-1-yl-7-(3-trifluoromethyl-pyridin-2-yl)-6,7,8,9-tetrahydro-5H-pyrimido[4,5-d]azepin-4-yl]-(4-trifluoromethyl-phenyl)-amine], the IC50 was 62 nM.

For `CC(C)(CO)c1ccc(Nc2nc(N3CCCCC3)nc3c2CCN(c2ncccc2C(F)(F)F)CC3)cc1` [Example 383, 2-Methyl-2-{4-[2-piperidin-1-yl-7-(3-trifluoromethyl-pyridin-2-yl)-6,7,8,9-tetrahydro-5H-pyrimido[4,5-d]azepin-4-ylamino]-phenyl}-propan-1-ol], the IC50 was found to be 160 nM.

For `FC(F)(F)c1ccc(Nc2nc(OC3CCCCC3)nc3c2CCN(c2ncccc2C(F)(F)F)CC3)cc1` [Example 338, 2-(Cyclohexyloxy)-N-[4-(trifluoromethyl)phenyl]-7-[3-(trifluoromethyl)pyridin-2-yl]-6,7,8,9-tetrahydro-5H-pyrimido[4,5-d]azepin-4-amine], the IC50 turned out to be 400 nM.

Turning to `CN(C)S(=O)(=O)c1ccc(Nc2nc(N3CCOCC3)nc3c2CCN(c2ncccc2C(F)(F)F)CC3)cc1` [Example 379, N,N-Dimethyl-4-({2-morpholin-4-yl-7-[3-(trifluoromethyl)pyridin-2-yl]-6,7,8,9-tetrahydro-5H-pyrimido[4,5-d]azepin-4-yl}amino)benzenesulfonamide], the IC50 was determined as 70 nM.

For the molecule `CC(C)N1CCN(c2nc3c(c(Nc4ccc(C(F)(F)F)cc4)n2)CCN(c2ncccc2C(F)(F)F)CC3)CC1` [Example 60B, [2-(4-Isopropyl-piperazin-1-yl)-7-(3-trifluoromethyl-pyridin-2-yl)-6,7,8,9-tetrahydro-5H-pyrimido[4,5-d]azepin-4-yl]-(4-trifluoromethyl-phenyl)-amine trifluoroacetic acid salt], the 50% inhibitory concentration (IC50) was found to be 140 nM.

Consider `CC(C)c1nc2c(c(Nc3ccc(-c4cnco4)cc3)n1)CCN(c1ncccc1C(F)(F)F)CC2` [Example 142, 2-(1-Methylethyl)-N-[4-(1,3-oxazol-5-yl)phenyl]-7-[3-(trifluoromethyl)pyridin-2-yl]-6,7,8,9-tetrahydro-5H-pyrimido[4,5-d]azepin-4-amine], for which the IC50 came to 2090 nM.

In the case of `CC(C)c1nc2c(c(Nc3ccc(C(C)(C)C#N)cc3)n1)CCN(c1ncccc1C(F)(F)F)CC2` [Example 129, 2-Methyl-2-[4-({2-(1-methylethyl)-7-[3-(trifluoromethyl)pyridin-2-yl]-6,7,8,9-tetrahydro-5H-pyrimido[4,5-d]azepin-4-yl}amino)phenyl]propanenitrile], the half-inhibitory concentration (IC50) came to 230 nM.

Regarding `CC(C)(C)c1ccc(Nc2nc(-c3ccncc3)nc3c2CCN(c2ncccc2C(F)(F)F)CC3)cc1` [Example 168, N-[4-(1,1-Dimethylethyl)phenyl]-2-pyridin-4-yl-7-[3-(trifluoromethyl)pyridin-2-yl]-6,7,8,9-tetrahydro-5H-pyrimido[4,5-d]azepin-4-amine trifluoroacetic acid salt], the concentration for half-maximal inhibition (IC50) turned out to be 30 nM.

Turning to `CC(C)c1nc2c(c(Nc3ccc4nsnc4c3)n1)CCN(c1ncccc1C(F)(F)F)CC2` [Example 148, Benzo[1,2,5]thiadiazol-5-yl-[2-isopropyl-7-(3-trifluoromethyl-pyridin-yl)-6,7,8,9-tetrahydro-5H-pyrimido[4,5-d]azepin-4-yl]-amine], the IC50 was determined as 2170 nM.

On to `CN(C)c1nc2c(c(Nc3ccc(C(C)(C)C#N)cc3)n1)CCN(c1ncccc1C(F)(F)F)CC2` [Example 65B, 2-{4-[2-Dimethylamino-7-(3-trifluoromethyl-pyridin-2-yl)-6,7,8,9-tetrahydro-5H-pyrimido[4,5-d]azepin-4-ylamino]-phenyl}-2-methyl-propionitrile trifluoroacetic acid salt], for which the IC50 is 650 nM.

Consider `FC1(F)CCN(c2nc3c(c(Nc4ccc(C(F)(F)F)cc4)n2)CCN(c2ncccc2C(F)(F)F)CC3)CC1` [Example 242, 2-(4,4-Difluoropiperidin-1-yl)-N-[4-(trifluoromethyl)phenyl]-7-[3-(trifluoromethyl)pyridin-2-yl]-6,7,8,9-tetrahydro-5H-pyrimido[4,5-d]azepin-4-amine], for which the IC50 was determined as 90 nM.

On to `CC(C)c1nc2c(c(Nc3ccc([N+](=O)[O-])cc3)n1)CCN(c1ncccc1C(F)(F)F)CC2` [Example 136, 2-(1-Methylethyl)-N-(4-nitrophenyl)-7-[3-(trifluoromethyl)pyridin-2-yl]-6,7,8,9-tetrahydro-5H-pyrimido[4,5-d]azepin-4-amine], for which the IC50 is 110 nM.
